Reference: the C3SDB collision cross section collection

Conditions: instrument: TW, calibrated with phosphatidylcholines (ESI+) and phosphatidylethanolamines (ESI-), doubly charged cardiolipins calibrated with poly-DL-…

Structure (SMILES)	collision cross section (N2) ([M-H]-) [Å²]	collision cross section (N2) ([M+2K]2+) [Å²]	collision cross section (N2) ([M-2H]2-) [Å²]	further results
CCCCCC/C=C\CCCCCCCC(=O)OC[C@H](COP(=O)(O)OCCNC(=O)CCCCCCCCCCCCCCC)OC(=O)CCCCCCCCCCCCCCCCC [AcylPE(50:1)]	323.73			collision cross section (N2) ([M+Na]+): 330.1 Å²
CCCCCC/C=C\CCCCCCCC(=O)OC[C@H](COP(=O)(O)OC[C@@H](O)COC(=O)CCCCCCCCCCCCCCC)OC(=O)CCCCCCCCCCCCCC [AcylPG(47:1)]	313.72			collision cross section (N2) ([M+Na]+): 326 Å²
CCCCCC/C=C\CCCCCCCC(=O)OC[C@H](COP(=O)(O)OC[C@@H](O)COC(=O)CCCCCCCCCCCCCCC)OC(=O)CCCCCCC/C=C\CCCCCCCC [AcylPG(50:2)]	322.71			collision cross section (N2) ([M+Na]+): 333.1 Å²
CCCCCC/C=C\CCCCCCCC(=O)OC[C@H](COP(=O)(O)OC[C@@H](O)COC(=O)CCCCCCCCCCCCCCC)OC(=O)CCCCCCC/C=C\CCCCCCCCCC [AcylPG(52:2)]	330.34			
CCCCCC/C=C\CCCCCCCC(=O)OC[C@H](O)COP(=O)(O)OC[C@@H](COC(=O)CCCCCCC/C=C\CCCCCC)OC(=O)CCCCCCC/C=C/CCCCCCCCCC [AcylPG(52:3)]	328.87			
CCCCCC/C=C\CCCCCCCC(=O)OC[C@H](O)COP(=O)(O)OC[C@@H](COC(=O)CCCCCCC/C=C\CCCCCC)OC(=O)CCCCCCCC1CC1CCCCCCCCCC (some centres undefined) [AcylPG(53:3)]	332.67			
CCCCCC/C=C\CCCCCCCC(=O)OC(COC(=O)CCCCCCCCCCCCCCC)COP(=O)(O)OCC(O)COP(=O)(O)OCC(COC(=O)CCCCCCCCCCCCC)OC(=O)CCCCCCCCCCCCCCC (centres undefined) [CL(62:1)]		419.8		
CCCCCC/C=C\CCCCCCCC(=O)OC(COC(=O)CCCCCCCCCCCCC)COP(=O)(O)OCC(O)COP(=O)(O)OCC(COC(=O)CCCCCCCCCCCCCCC)OC(=O)CCCCCCC/C=C\CCCCCC (centres undefined) [CL(62:2)]		418.5		
CCCCCC/C=C\CCCCCCCC(=O)OC(COC(=O)CCCCCCCCCCCCCCC)COP(=O)(O)OCC(O)COP(=O)(O)OCC(COC(=O)CCCCCCCCCCCCCC)OC(=O)CCCCCCCCCCCCCCC (centres undefined) [CL(63:1)]		421.5	394.72	
CCCCCC/C=C\CCCCCCCC(=O)OC(COC(=O)CCCCCCCCCCCCCC)COP(=O)(O)OCC(O)COP(=O)(O)OCC(COC(=O)CCCCCCCCCCCCCCC)OC(=O)CCCCCCC/C=C\CCCCCC (centres undefined) [CL(63:2)]		421	394.34	
CCCCCC/C=C\CCCCCCCC(=O)OCC(COP(=O)(O)OCC(O)COP(=O)(O)OCC(COC(=O)CCCCCCCCCCCCCCC)OC(=O)CCCCCCC/C=C\CCCCCC)OC(=O)CCCCCCC/C=C\CCCCCC (centres undefined) [CL(64:3)]			397.47	
CCCCCC/C=C\CCCCCCCC(=O)OCC(COP(=O)(O)OCC(O)COP(=O)(O)OCC(COC(=O)CCCCCCCCCCCCCCC)OC(=O)CCCCCCCC1CC1CCCCCC)OC(=O)CCCCCCC/C=C\CCCCCC (centres undefined) [CL(65:3)]		424.2	400.07	
CCCCCC/C=C\CCCCCCCC(=O)OC(COC(=O)CCCCCCCCCCCCCCC)COP(=O)(O)OCC(O)COP(=O)(O)OCC(COC(=O)CCCCCCCCCCCCCCC)OC(=O)CCCCCCC/C=C\CCCCCCCC (centres undefined) [CL(66:2)]		426.8	402.26	
CCCCCC/C=C\CCCCCCCC(=O)OCC(COP(=O)(O)OCC(O)COP(=O)(O)OCC(COC(=O)CCCCCCCCCCCCCCC)OC(=O)CCCCCCC/C=C\CCCCCCCC)OC(=O)CCCCCCC/C=C\CCCCCC (centres undefined) [CL(66:3)]		425.7	401.91	
CCCCCC/C=C\CCCCCCCC(=O)OCC(COP(=O)(O)OCC(O)COP(=O)(O)OCC(COC(=O)CCCCCCC/C=C\CCCCCC)OC(=O)CCCCCCC/C=C\CCCCCCCC)OC(=O)CCCCCCC/C=C\CCCCCC (centres undefined) [CL(66:4)]			401.68	
CCCCCCCC/C=C\CCCCCCCC(=O)OC(COC(=O)CCCCCCCCCCCCCCC)COP(=O)(O)OCC(O)COP(=O)(O)OCC(COC(=O)CCCCCCCC1CC1CCCCCC)OC(=O)CCCCCCCCCCCCCCC (centres undefined) [CL(67:2)]		427.9	404.3	
CCCCCCCC/C=C\CCCCCCCC(=O)OCC(COP(=O)(O)OCC(O)COP(=O)(O)OCC(COC(=O)CCCCCCCCCCCCCCC)OC(=O)CCCCCCC/C=C\CCCCCCCC)OC(=O)CCCCCCCCCCCCCCC (centres undefined) [CL(68:2)]			407.34	
CCCCCC/C=C\CCCCCCCC(=O)OC(COC(=O)CCCCCCC/C=C\CCCCCCCC)COP(=O)(O)OCC(O)COP(=O)(O)OCC(COC(=O)CCCCCCCCCCCCCCC)OC(=O)CCCCCCC/C=C\CCCCCCCC (centres undefined) [CL(68:3)]			407.14	
CCCCCCCCCCCCCC(=O)O[C@H](CO)COP(=O)([O-])OCC[NH3+] [LPE(0:0/14:0)]	198.83			collision cross section (N2) ([M+H]+): 208.79 Å²; collision cross section (N2) ([M+Na]+): 213.66 Å²
CCCCC1CC1CCCCCCCC(=O)O[C@H](CO)COP(=O)([O-])OCC[NH3+] (some centres undefined) [LPE(0:0/15:1)]	199.81			
CCCCCCCCCCCCCCCC(=O)O[C@H](CO)COP(=O)([O-])OCC[NH3+] [LPE(0:0/16:0)]	206.05			collision cross section (N2) ([M+H]+): 216.39 Å²; collision cross section (N2) ([M+Na]+): 220.61 Å²
